Results: patent publication US20050249831A1, “Herbal extract comprising a mixture of saponins obtained from sapindus trifoliatus for anticonvulsant activity” (priority 2002, published 2005)

Experiments:
[1] = tested on: PTZ induced seizures in rats; type: in vivo; details: 4 mg/kg, i.p., 2 ml/kg, standard control
[2] = tested on: MES induced seizures in rats; test: Maximal Electroshock Seizure (MES) model; type: in vivo; details: Rattus norvegicus, ip, read-out: ED50, protection to hind limb tonic extension due to electroshock
Description: In order to evaluate the efficacy of the extract of Sapindus trifoliatus, for its prophylactic therapeutic potential in migraine, its role as an anticonvulsant was evaluated in an in vivo animal model. […]
Male Wistar rats (150-200 g) were used in the study. […] Mortality if any was recorded. […]
Values of incidence and mortality were expressed as ratios and analysed by Fisher's test. The latency for onset and duration of hind limb extension of maximal electroshock induced convulsions were averaged, expressed as mean±standard deviation. Mean values were analysed by one way ANOVA followed by Dunnett ‘t’ test for multiple comparison or Students ‘t’ test for comparing two means. […] ED50 values were calculated by probit analysis [Finney, D. J., Probit Analysis, Cambridge University Press, London, 1947].

Compound | Protection against PTZ induced seizures [1] | ED50 [2] [mg/kg]
CN1C(=O)CN=C(c2ccccc2)c2cc(Cl)ccc21 [diazepam, Diazepam] | significantly protected | –
CCCC(CCC)C(=O)[O-].[Na+] [Sodium valproate] | – | 67.7
